From patent publication US20080108611A1, “SUBSTITUTED THIENOPYRIMIDINE KINASE INHIBITORS” (priority 2006, published 2008)
pIC50: −log10 of the molar value.

biological target: T1, EGFR (Homo sapiens, UniProt P00533); test: EGFR Kinase Assay; type: biochemical; conditions: GST-EGFR intracellular portion, 5 μM ATP
T1 construct: The intracellular portion of EGFR started at nucleotide 2189 (corresponding to amino acid 667) and ended at the termination codon; made in house; host or cells: Sf9 insect cells (baculovirus)
From the text: The EGFR kinase used was a fusion of Glutathione-S-Transferase (GST) and a PCR amplified intracellular portion of EGFR (NM_005228). The intracellular portion of EGFR started at nucleotide 2189 (corresponding to amino acid 667) and ended at the termination codon. The portion was PCR amplified with primers that added the lambda attB sequences to each end, recombined into an entry vector, then into a GST destination vector (as described in Gateway Technologies Manual by Invitrogen Corporation, Carlsbad, Calif.).
The destination vector was recombined in the DH10BAC strain of bacteria to produce a bacmid. The bacmid was transfected into Sf 9 cells and the supernatant containing the baculovirus was collected. The GSTEGFR protein was purified using large cultures of Sf 9 cells infected with stock virus. After an appropriate period of time, the cells were collected and lysed. The GSTEGFR was then purified from the lysate on Glutathione-Sepharose columns (as described by Amersham Biosciences, Buckinghamshire, United Kingdom).
The EGFR substrate was prepared by biotinylating polyGluTyr (128 mg) (Sigma, St. Louis, Mo.) in a 1×PBS buffer incubated together with a 12-fold molar excess of Sulfo-NHS-LC-Biotin on ice for at least 2 hrs. The free biotin was separated from the biotinylated polyGluTyr on a gel filtration column.
A mixture of a 10× kinase buffer (500 mM Tris at pH 8.0, 100 mM Magnesium Chloride and 1 mM Sodium Vanadate), DTT (1 mM final from 500 mM stock), ATP (5 μM final from 10 mM stock), biotinylated polyGluTyr (10 μg/μL stock), γ-^33P ATP (10 μCi/μL stock) and water was added to each well (90 μL/well) of a Streptavidin Flashplate (Perkin Elmer, Wellesley, M A).
Test compound in 100% DMSO (2 μL) was added to the appropriate wells. Diluted GSTEGFR (1:300 dilution in 50 mM Tris at pH 8.0 and 0.1% bovine serum albumin) (10 μL) was added to the wells to initiate the reactions.
The plates were incubated at 30° C. for 1 hr with shaking. The reacted contents were removed and the plates were sequentially washed three times with a 1×PBS stop buffer (300 μL without Magnesium and Calcium) and 100 mM EDTA. After the final wash, the same stop buffer (200 μL) was added to the wells. The plates were then sealed and read on the TopCount scintillation counter.
Test compounds were assayed in triplicate at 16 concentrations at half-log dilutions starting at 200 uM. A maximum and minimum signal for the assay was determined on each plate. The percent inhibition of a test compound was calculated according to the formula
For a series of test concentrations, the IC50 was derived by graphing percent inhibition against the log of the concentrations tested for a given compound. For those compounds without an IC50, the percent inhibition results are shown at a test concentration of 2 μM.

T1 sequence (P00533 669-1210 limits assumed): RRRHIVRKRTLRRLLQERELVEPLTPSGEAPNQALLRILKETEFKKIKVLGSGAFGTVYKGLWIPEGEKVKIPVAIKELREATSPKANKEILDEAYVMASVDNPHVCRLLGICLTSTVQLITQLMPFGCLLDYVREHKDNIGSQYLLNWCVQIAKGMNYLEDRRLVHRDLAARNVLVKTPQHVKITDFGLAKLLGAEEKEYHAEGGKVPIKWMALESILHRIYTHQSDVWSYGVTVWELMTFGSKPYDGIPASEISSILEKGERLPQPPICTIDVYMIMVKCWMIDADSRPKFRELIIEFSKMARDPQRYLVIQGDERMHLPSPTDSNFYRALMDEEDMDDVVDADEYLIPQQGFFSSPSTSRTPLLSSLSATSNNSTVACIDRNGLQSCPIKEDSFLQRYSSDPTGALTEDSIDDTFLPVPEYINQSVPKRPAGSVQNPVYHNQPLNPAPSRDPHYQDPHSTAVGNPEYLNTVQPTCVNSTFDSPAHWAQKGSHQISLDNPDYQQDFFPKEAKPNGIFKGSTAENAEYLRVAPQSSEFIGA

Structure (SMILES)	pIC50
COc1ccc(NC(=O)c2sc3ncnc(Nc4ccc(F)c(Cl)c4)c3c2N)cc1 [Cpd 1, 5-amino-4-(3-chloro-4-fluoro-phenylamino)-thieno[2,3-d]pyrimidine-6-carboxylic acid (4-methoxy-phenyl)-amide]	9.62
COc1ccc(NC(=O)c2sc3ncnc(Nc4ccc(F)c(Cl)c4)c3c2N)cc1OC [Cpd 3, 5-amino-4-(3-chloro-4-fluoro-phenylamino)-thieno[2,3-d]pyrimidine-6-carboxylic acid (3,4-dimethoxy-phenyl)-amide]	9.96
Nc1c(C(=O)NCCN2CCOCC2)sc2ncnc(Nc3ccc(F)c(Cl)c3)c12 [Cpd 4, 5-amino-4-(3-chloro-4-fluoro-phenylamino)-thieno[2,3-d]pyrimidine-6-carboxylic acid (2-morpholin-4-yl-ethyl)-amide]	9.22
Nc1c(C(=O)Nc2ccc(Oc3ccccc3)cc2)sc2ncnc(Nc3ccc(F)c(Cl)c3)c12 [Cpd 6, 5-amino-4-(3-chloro-4-fluoro-phenylamino)-thieno[2,3-d]pyrimidine-6-carboxylic acid (4-phenoxy-phenyl)-amide]	9.13
Nc1c(C(=O)Nc2ccc(OC(F)(F)F)cc2)sc2ncnc(Nc3ccc(F)c(Cl)c3)c12 [Cpd 7, 5-amino-4-(3-chloro-4-fluoro-phenylamino)-thieno[2,3-d]pyrimidine-6-carboxylic acid (4-trifluoromethoxy-phenyl)-amide]	9.22
CC(C)Oc1ccc(NC(=O)c2sc3ncnc(Nc4ccc(F)c(Cl)c4)c3c2N)cc1 [Cpd 8, 5-amino-4-(3-chloro-4-fluoro-phenylamino)-thieno[2,3-d]pyrimidine-6-carboxylic acid (4-isopropoxy-phenyl)-amide]	9.85
COc1ccc(NC(=O)c2sc3ncnc(Nc4ccc(F)c(Cl)c4)c3c2N)cn1 [Cpd 9, 5-amino-4-(3-chloro-4-fluoro-phenylamino)-thieno[2,3-d]pyrimidine-6-carboxylic acid (6-methoxy-pyridin-3-yl)-amide]	9.83
Nc1c(C(=O)Nc2ccc(N3CCOCC3)cc2)sc2ncnc(Nc3ccc(F)c(Cl)c3)c12 [Cpd 10, 5-amino-4-(3-chloro-4-fluoro-phenylamino)-thieno[2,3-d]pyrimidine-6-carboxylic acid (4-morpholin-4-yl-phenyl)-amide]	9.71
COc1ccc(CNC(=O)c2sc3ncnc(Nc4ccc(F)c(Cl)c4)c3c2N)cc1OC [Cpd 11, 5-amino-4-(3-chloro-4-fluoro-phenylamino)-thieno[2,3-d]pyrimidine-6-carboxylic acid 3,4-dimethoxy-benzylamide]	9.75
COc1ccc(CCNC(=O)c2sc3ncnc(Nc4ccc(F)c(Cl)c4)c3c2N)cc1OC [Cpd 12, 5-amino-4-(3-chloro-4-fluoro-phenylamino)-thieno[2,3-d]pyrimidine-6-carboxylic acid [2-(3,4-dimethoxy-phenyl)-ethyl]-amide]	9.66

These reach a higher pIC50. Values come first.

pIC50	Structure (SMILES)
10.07	Nc1c(C(=O)Nc2ccc(CN3CCOCC3)cc2)sc2ncnc(Nc3ccc(F)c(Cl)c3)c12 [Cpd 2, 5-amino-4-(3-chloro-4-fluoro-phenylamino)-thieno[2,3-d]pyrimidine-6-carboxylic acid (4-morpholin-4-ylmethyl-phenyl)-amide]
10.37	CN(C)CCCNS(=O)(=O)c1ccc(NC(=O)c2sc3ncnc(Nc4ccc(F)c(Cl)c4)c3c2N)cc1 [Cpd 5, 5-amino-4-(3-chloro-4-fluoro-phenylamino)-thieno[2,3-d]pyrimidine-6-carboxylic acid [4-(3-dimethylamino-propylsulfamoyl)-phenyl]-amide]
10.28	Nc1c(C(=O)Nc2ccc(CN3CCCCC3)cc2)sc2ncnc(Nc3ccc(F)c(Cl)c3)c12 [Cpd 13, 5-amino-4-(3-chloro-4-fluoro-phenylamino)-thieno[2,3-d]pyrimidine-6-carboxylic acid (4-piperidin-1-ylmethyl-phenyl)-amide]
10.47	CN(C)Cc1ccc(NC(=O)c2sc3ncnc(Nc4ccc(F)c(Cl)c4)c3c2N)cc1 [Cpd 14, 5-amino-4-(3-chloro-4-fluoro-phenylamino)-thieno[2,3-d]pyrimidine-6-carboxylic acid (4-dimethylaminomethyl-phenyl)-amide]
10.19	CN(CCc1ccc(NC(=O)c2sc3ncnc(Nc4ccc(F)c(Cl)c4)c3c2N)cc1)C1CCOCC1 [Cpd 15, 5-amino-4-(3-chloro-4-fluoro-phenylamino)-thieno[2,3-d]pyrimidine-6-carboxylic acid (4-{2-[methyl-(tetrahydro-pyran-4-yl)-amino]-ethyl}-phenyl)-amide]
10.46	CN(Cc1ccc(NC(=O)c2sc3ncnc(Nc4ccc(F)c(Cl)c4)c3c2N)cc1)C[C@H]1CCCO1 [Cpd 16, 5-amino-4-(3-chloro-4-fluoro-phenylamino)-thieno[2,3-d]pyrimidine-6-carboxylic acid [4-({methyl-[(2R)-tetrahydro-furan-2-ylmethyl]-amino}-methyl)-phenyl]-amide]
10.21	CN(Cc1ccc(NC(=O)c2sc3ncnc(Nc4ccc(F)c(Cl)c4)c3c2N)cc1)C[C@@H]1CCCO1 [Cpd 17, 5-amino-4-(3-chloro-4-fluoro-phenylamino)-thieno[2,3-d]pyrimidine-6-carboxylic acid [4-({methyl-[(2S)-tetrahydro-furan-2-ylmethyl]-amino}-methyl)-phenyl]-amide]
10.17	CN1CCN(Cc2ccc(NC(=O)c3sc4ncnc(Nc5ccc(F)c(Cl)c5)c4c3N)cc2)CC1 [Cpd 18, 5-amino-4-(3-chloro-4-fluoro-phenylamino)-thieno[2,3-d]pyrimidine-6-carboxylic acid [4-(4-methyl-piperazin-1-ylmethyl)-phenyl]-amide]
